Experimental data: patent US4125501A, “Phosphites of sugar alcohols and polymers stabilized therewith” (Hoechst Aktiengesellschaft, priority 1976, dated 1978)

Legend:
[1] = stability to hydrolysis (boiling in deionized water, titration of liberated phosphorous acid); format: physicochemical; conditions: for degree of hydrolysis after 60 minutes: 1 h
Description: The stability to hydrolysis was tested according to the process disclosed in DT-OS 2,144,181, pages 7/8. 5.0 g each of the respective phosphite were boiled for 20 and 60 minutes in 100 ml of deionized water. The mixture was then allowed to cool, it was filtered to remove residues, if any, and in the filtrate the liberated phosphorous acid was titrated with 0.1N KOH against bromophenol blue.
In the following table is indicated the degree of hydrolysis determined under the specified conditions as quotient of the actual consumption of KOH and the theoretically possible consumption with a complete hydrolysis.

[2] = acute toxicity in male albino mice, per os; format: in vivo
Description: To test the acute toxicities of the compounds of the invention male albino mice were fed as prescribed in the book "Grundlagen der experimentellen Arzneimittelforschung" by Leopold Ther, addition 1965.
The phosphite to be tested was administered per os, suspended in aqueous methyl cellulose (Tylose^R) solution, to groups of 5 test animals each, the doses being 1,000, 2,000, and 5,000 mg/kg of body weight.

[3] = dynamic heat stability (rolling stability) in polyvinyl chloride; conditions: 180° C, 20 rpm, 0.5 part phosphite per 100 parts PVC
Description: Each time 100 parts of a mass polyvinyl chloride having a K value of 60 were intimately mixed with
0.2 part of 2-phenyl-indole,
3.0 parts of epoxidized soybean oil
0.3 part of stearyl stearate
0.5 part of glycerol monostearate and
0.5 part each of respective phosphite of the invention.
To measure the dynamic heat stability (rolling stability) the mixtures were rolled on a two roll mill at 180° C. and with 20 revolutions per minute. At intervals of 10 minutes samples were taken from the rough sheet and the color of the samples was compared with the colors of a proper color chart. Rolling was continued until the rough sheet had turned black.
In the color chart used the individual notes have the following meaning: […]

Row | Molecule | degree of hydrolysis after 20 minutes [1] | degree of hydrolysis after 60 minutes [1] | further results
1 | Di-(β-hydroxy-triacontyl)-sorbityl-diphosphite [Example 2] | 22.5 % of theory |  | toxicity assessment ([2]; acute): practically innocuous; deaths at the highest dosage ([2]; per os, highest dose 5,000 mg/kg of body weight): no animal died
2 | CCCCCCCCCCCCCCCCCCOP1OCC2(CO1)COP(OCCCCCCCCCCCCCCCCCC)OC2 (stereo not drawn) [distearyl-pentaerythrityl-diphosphite] |  |  | dynamic (rolling) stability, discoloration of rough sheet after a rolling time of 40' ([3]; 40'): 4; dynamic (rolling) stability, discoloration of rough sheet after a rolling time of 50' ([3]; 50'): 5
3 | Tri-(β-hydroxy-triacontyl)-sorbityl-triphosphite [Example 1] | 1.8 % of theory | 2.4 % of theory | 

The next lines start with results.

Row | degree of hydrolysis after 20 minutes [1] | degree of hydrolysis after 60 minutes [1] | Molecule | further results
4 | 21.0 % of theory |  | Di-(β-hydroxy-triacontyl)-mannityl-diphosphite [Example 3] | 
5 | 1.5 % of theory | 3.6 % of theory | Di-(β-hydroxy-triacontyl)-mono-thiododecyl-sorbityl-triphosphite [Example 4] | 
6 | 1.0 % of theory | 2.0 % of theory | Di-(β-hydroxy-eicosyl)-mono-thiododecyl-mannityl-triphosphite [Example 5] | 
